From publication PMC3100853 (2010) come the findings set out here.

For test [1], the system named is FB1 14 (DNA, aptamer) ATACCAGCTTATTCAATTCTATACGGAGTGGATATCGATCTGTAACGTGAGTGAGATAATGTGATGCATAGTCGTGGAGATAGTAAGTGCAATCT
Kind of test: magnetic bead binding, percent DNA eluted (fluorescence). The conditions noted are these: 100 mM NaCl, 5 mM KCl, 2 mM MgCl2, 1 mM CaCl2; 20 mM Tris pH 7.6, room temperature; immobilised compound; 9-15 pmol DNA, 2 × 10^8 beads.

The test system of test [2] is FB1 32 (DNA, aptamer) ATACCAGCTTATTCAATTAATGTACGATGTGTGGGCAACATGAGTATGTCGTGTGATATCTAGATGAGGTAGCGGTGGAGATAGTAAGTGCAATCT
Described as above. Conditions: 100 mM NaCl, 5 mM KCl, 2 mM MgCl2, 1 mM CaCl2; 20 mM Tris pH 7.6, room temperature; immobilised compound; 9-15 pmol DNA, 2 × 10^8 beads.

For test [3], the system named is FB1 23 (DNA, aptamer) ATACCAGCTTATTCAATTGCGGATGCGTAAATGACGATAAACATAGATGGGGTATATCGCGATGCGACAGGGTGTAGATAGTAAGTGCAATCT
Described as above. The conditions noted are these: 100 mM NaCl, 5 mM KCl, 2 mM MgCl2, 1 mM CaCl2; 20 mM Tris pH 7.6, room temperature; immobilised compound; 9-15 pmol DNA, 2 × 10^8 beads.

In test [4] the test system is FB1 31 (DNA, aptamer) ATACCAGCTTATTCAATTCGGGGACGTGTATACCAGCTTATTCAATTCACAGTTATGTCCTATACCAGCTTATTCAATTAGATAGTAAGTGCAATCT
The description is as above. Conditions: 100 mM NaCl, 5 mM KCl, 2 mM MgCl2, 1 mM CaCl2; 20 mM Tris pH 7.6, room temperature; immobilised compound; 9-15 pmol DNA, 2 × 10^8 beads.

Test [5] has as its system FB1 16 (DNA, aptamer) ATACCAGCTTATTCAATTCATCCAGTAACAAACACATAAGTAACGGCGATATGTCAAAGCGGTATCGGCTACAGATGAGATAGTAAGTGCAATCT
The test is described as above. Conditions: 100 mM NaCl, 5 mM KCl, 2 mM MgCl2, 1 mM CaCl2; 20 mM Tris pH 7.6, room temperature; immobilised compound; 9-15 pmol DNA, 2 × 10^8 beads.

The subject of test [6] is FB1 39 (DNA, aptamer) ATACCAGCTTATTCAATTAATCGCATTACCTTATACCAGCTTATTCAATTACGTCTGCACATACCAGCTTATTCAATTAGATAGTAAGTGCAATCT
Kind of test: magnetic bead binding, fluorescence of eluted DNA. Conditions: 100 mM NaCl, 5 mM KCl, 2 mM MgCl2, 1 mM CaCl2; 20 mM Tris pH 7.6, room temperature; immobilised compound; aptamer 1 nM to 1 μM.

Structures are written as SMILES.

The KD is a measure of binding affinity in units of concentration. As to `CCCC[C@@H](C)[C@@H](OC(=O)C[C@@H](CC(=O)O)C(=O)O)[C@H](C[C@@H](C)C[C@H](O)CCCC[C@@H](O)C[C@H](O)[C@H](C)N)OC(=O)C[C@@H](CC(=O)O)C(=O)O`, the binding entry in test [1], in test [2], in test [3], in test [4] and in test [5] was “yes” in each case. For the same compound, the KD in test [6] was determined as 100 ± 30 nM.
